In patent US6683077B2, “2-Amino-benzoxazinones for the treatment of viral infections” (G.D. Searle & Co., priority 1996, dated 2004):

Assays:
[1] = target: HCMV protease (assemblin) (Human cytomegalovirus, UniProt P16753); experiment: Enzymatic assay for HCMV protease (assemblin) inhibitors; format: biochemical; details: for Assemblin Protease, % @ concentration: @ 10 (concentration unit not given)
[2] = system: HCMV engineered virus RC256; experiment: microbe, parasite or virus in culture; format: cell-based, human cytomegalovirus; details: Human betaherpesvirus 5, Fibroblast, read-out: Antiviral Activity RC256, first value (EC50)
[3] = target: T1, Human leukocyte elastase (HLE) (Homo sapiens, UniProt P08246); experiment: Human leukocyte elastase assay; format: biochemical
T1 construct: gift of R. Senior, Washington University
T1 sequence (P08246 30-267): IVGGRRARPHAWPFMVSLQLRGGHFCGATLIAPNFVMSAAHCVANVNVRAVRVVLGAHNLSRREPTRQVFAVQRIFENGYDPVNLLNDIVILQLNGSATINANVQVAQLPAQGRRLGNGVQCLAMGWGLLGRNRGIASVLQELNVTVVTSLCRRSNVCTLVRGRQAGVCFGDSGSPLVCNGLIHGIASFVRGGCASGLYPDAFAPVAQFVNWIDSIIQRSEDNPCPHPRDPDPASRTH
Method: Human leukocyte elastase (HLE) (gift of R. Senior, Washington University) was dissolved in saline at 1 mg/ml and further diluted 1/20 in assay buffer (0.2 M Tris, pH 8.0) before use. 10 μl of test compound in DMSO (or DMSO alone), 100 μl of assay buffer and 50 μl of enzyme were added to 96 well plates, mixed and pre-incubated for 30 minutes at ambient temperature. Reaction was initiated by addition of 40 μl of 2.5 mM methoxysuccinyl-Ala-Ala-Pro-Val-p-nitroanilide (Sigma; 25 mM in DMSO diluted 1/10 in assay buffer before use). The increase in absorbance at 405 nm was monitored for 10 minutes with a Biotek EL340 plate reader.

[4] = @ 10 (concentration unit not given)
[5] = @ 100 (concentration unit not given)
[6] = @ 1 (concentration unit not given)

Sequence of HCMV protease (assemblin) (P16753 1-256): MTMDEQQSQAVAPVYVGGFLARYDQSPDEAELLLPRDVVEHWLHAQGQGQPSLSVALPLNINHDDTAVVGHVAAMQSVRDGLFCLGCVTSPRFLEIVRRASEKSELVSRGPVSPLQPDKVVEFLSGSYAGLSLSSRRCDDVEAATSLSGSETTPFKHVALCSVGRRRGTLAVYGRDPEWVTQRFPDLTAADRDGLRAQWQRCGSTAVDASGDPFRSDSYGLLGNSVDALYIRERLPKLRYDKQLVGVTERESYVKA

`COc1ccc(C[C@H](Nc2nc3ccc(CNC(=O)Oc4ccccc4)c(C)c3c(=O)o2)C(=O)N(C)Cc2ccccc2)cc1` [Example 9j, Phenyl[[2-[[1S-[(4-methoxyphenyl)methyl]-2-[methyl(phenylmethyl)amino]-2-oxcethyl]amino]-5-methyl-4-oxo-4H-3,1-benzoxazin-6-yl]methyl]carbamate] gave an IC50 [1] of 0.4 µM and an EC50 [2] of 20 µM.

For `COc1ccc(C[C@H](Nc2nc3ccc(NC(=O)OCc4ccccc4)c(C)c3c(=O)o2)C(=O)N(C)Cc2ccccc2)cc1` [Example 11t, Phenylmethyl[2-[[1S-[(4-methoxyphenyl)methyl]-2-[methyl(phenylmethyl)amino]-2-oxoethyl]amino]-5-methyl-4H-3,1-benzoxazin-6-yl]carbamate], the “Assemblin Protease, % @ concentration” value [1] was 38% @ 10 and the EC50 [2] was 35 µM.

For `COc1ccc(C[C@H](Nc2nc3ccc(NC(=O)OCC(C)C)c(C)c3c(=O)o2)C(=O)N(C)Cc2ccccc2)cc1` [Example 11s, 2-Methylpropyl[2-[[1S-[(4-methoxyphenyl)methyl]-2-[methyl(phenylmethyl)amino]-2-oxoethyl]amino]-5-methyl-4H-3,1-benzoxazin-6-yl]carbamate], the “Assemblin Protease, % @ concentration” value [1] was 58% @ 10 and the EC50 [2] was 17 µM.

With `CCOC(=O)NCc1cc(Br)c2nc(N[C@@H](Cc3ccccc3)C(=O)N(C)Cc3ccccc3)oc(=O)c2c1C` [Example 15b, Ethyl[[8-bromo-5-methyl-2-[[2-[methyl(phenylmethyl)amino]-2-oxo-1S-(phenylmethyl)ethyl]amino]-4-oxo-4H-3,1-benzoxazin-6-yl]methyl]carbamate] the “Assemblin Protease, % @ concentration” value [1] was 39% @ 10 and the EC50 [2] was 16 µM.

For `CCOC(=O)NCc1ccc2nc(N[C@@H](Cc3ccc(OC)cc3)C(=O)N(C)Cc3ccccc3)oc(=O)c2c1C` [Example 9g, Ethyl[[2-[[1S-[(4-methoxyphenyl)methyl]-2-[methyl(phenylmethyl)amino]-2-oxoethyl]amino]-5-methyl-4-oxo-4H-3,1-benzoxazin-6-yl]methyl]carbamate], the EC50 [2] was 15 µM and the “HLE, % @ concentration” value [3, 4] was 27% @ 10.

For `COC(=O)[C@H](Cc1ccc(OC)cc1)Nc1nc2ccc(NC(=O)OC(C)(C)C)c(C)c2c(=O)o1` [Example 6c, N-[6-[[(1,1-Dimethylethoxy)carbonyl]amino]-5-methyl-4-oxo-4H-3,1-benzoxazin-2-yl]-O-methyl-L-tyrosine, methyl ester], the EC50 [2] was 59 µM and the “HLE, % @ concentration” value [3, 5] was 29% @ 100.

In the case of `Cc1c(NCc2ccccc2)ccc2nc(N[C@@H](Cc3ccccc3)C(=O)N(C)Cc3ccccc3)oc(=O)c12` [Example 17d, N-Methyl-αS-[[5-methyl-4-oxo-6-[(phenylmethyl)amino]-3,1-benzoxazin-2-yl]amino]-N-(phenylmethyl)benzenepropanamide], the EC50 [2] is reported as 15 µM and the “HLE, % @ concentration” value [3, 4] is reported as 48% @ 10.

`COc1ccc(C[C@H](Nc2nc3ccc(NC(=O)c4ccco4)c(C)c3c(=O)o2)C(=O)N(C)Cc2ccccc2)cc1` [Example 11u, N-[2-[[1S-[(4-Methoxyphenyl)methyl]-2-[methyl(phenylmethyl)amino]-2-oxoethyl]amino]-5-methyl-4-oxo-4H-3,1-benzoxazin-6-yl]furan-2-carboxamide] was tested, and the EC50 [2] was 18 µM and the “HLE, % @ concentration” value [3, 4] was 19% @ 10.

In the case of `CCN(Cc1ccccc1)C(=O)[C@H](Cc1ccccc1)Nc1nc2c(Br)cc(CNC(=O)CN3CCOCC3)c(C)c2c(=O)o1` [Example 15g, N-[[8-Bromo-2-[[2-[ethyl(phenylmethyl)amino]-2-oxo-1S-(phenylmethyl)ethyl]amino]-5-methyl-4-oxo-4H-3,1-benzoxazin-6-yl]methyl]morpholine-4-acetamide], the EC50 [2] is reported as 16 µM and the “HLE, % @ concentration” value [3, 6] is reported as 22% @ 1.

With `Cc1c(CNC(=O)c2ccccn2)ccc2nc(N[C@@H](Cc3ccccc3)C(=O)N(C)Cc3ccccc3)oc(=O)c12` [Example 9s, N-[[5-Methyl-2-[[2-[methyl(phenylmethyl)amino]-2-oxo-1S-(phenylmethyl)ethyl]amino]-4-oxo-4H-3,1-benzoxazin-6-yl]methyl]pyridine-2-carboxamide] the EC50 [2] was 7.5 µM and the “HLE, % @ concentration” value [3, 4] was 55% @ 10.

With `Cc1c(NC(=O)OC(C)(C)C)ccc2nc(N[C@H]3CCN(c4ccc(C#N)cc4)C3=O)oc(=O)c12` [Example 6y] the EC50 [2] was 67 µM and the “HLE, % @ concentration” value [3, 4] was 25% @ 10.

With `COc1ccc(C[C@H](Nc2nc3ccc(CNC(=O)OCc4ccncc4)c(C)c3c(=O)o2)C(=O)N(C)Cc2ccccc2)cc1` [Example 18d, (4-Pyridinyl)methyl[[2-[[1S-[(4-methoxyphenyl)methyl]-2-[methyl(phenylmethyl)amino]-2-oxoethyl]amino]-5-methyl-4-oxo-3,1-benzoxazin-6-yl]methyl]carbamate] the EC50 [2] was 12 µM and the “HLE, % @ concentration” value [3, 6] was 55% @ 1.

In the case of `Cc1c(NC(=O)c2ccco2)ccc2nc(N[C@@H](C)c3ccccc3)oc(=O)c12` [Example 11k, 6-[[(2-Furanyl)carbonyl]amino]-5-methyl-2-[[(1S)-phenylethyl]amino]-4H-3,1-benzoxazin-4-one], the EC50 [2] is reported as 65 µM and the “HLE, % @ concentration” value [3, 5] is reported as 63% @ 100.

With `Cc1c(CNC(=O)OC(C)(C)C)ccc2nc(N[C@@H](Cc3ccccc3)C(=O)N(C)Cc3ccccc3)oc(=O)c12` [Example 7j, 1,1-Dimethylethyl[[5-methyl-2-[[2-[methyl(phenylmethyl)amino]-2-oxo-1S-(phenylmethyl)ethyl]amino]-4-oxo-4H-3,1-benzoxazin-6-yl]methyl]carbamate] the EC50 [2] was 14 µM and the “HLE, % @ concentration” value [3, 4] was 31% @ 10.

`CCN(Cc1ccccc1)C(=O)[C@H](Cc1ccc(OC)cc1)Nc1nc2ccc(CNC(=O)OCc3ccccc3)c(C)c2c(=O)o1` [Example 9p, Phenylmethyl[[2-[[2-[ethyl(phenylmethyl)amino]-1S-[(4-methoxyphenyl)methyl]-2-oxoethyl]amino]-5-methyl-4-oxo-3,1-benzoxazin-6-yl]methyl]carbamate] was tested, and the EC50 [2] was over 100 µM and the “HLE, % @ concentration” value ([3]; @ 6 (concentration unit not given)) was 45% @ 6.

For `COc1ccc(C[C@H](Nc2nc3ccc(CNC(=O)OC(C)(C)C)c(C)c3c(=O)o2)C(=O)N2CCCC2)cc1` [Example 7g, 1,1-Dimethylethyl[[2-[[1S-[(4-methoxyphenyl)methyl]-2-oxo-2-(1-pyrrolidinyl)ethyl]amino]-5-methyl-4-oxo-4H-3,1-benzoxazin-6-yl]methyl]carbamate], the EC50 [2] was 20 µM and the “HLE, % @ concentration” value [3, 4] was 39% @ 10.

With `COc1ccc(C[C@H](Nc2nc3ccc(CNC(=O)OC(C)(C)C)c(C)c3c(=O)o2)C(=O)N(C)CCc2ccccc2)cc1` [Example 7q, 1,1-Dimethylethyl[[2-[[1S-[(4-methoxyphenyl)methyl]-2-[methyl(2-phenylethyl)amino]-2-oxoethyl]amino]-5-methyl-4-oxo-4H-3,1-benzoxazin-6-yl]methyl]carbamate] the EC50 [2] was 22 µM and the “HLE, % @ concentration” value [3, 6] was 39% @ 1.

With `Cc1c(CNC(=O)N(C)c2ccccc2)ccc2nc(N[C@@H](Cc3ccccc3)C(=O)N(C)Cc3ccccc3)oc(=O)c12` [Example 12i, N-Methyl-αS-[[5-methyl-6-[[[(methylphenylamino)carbonyl]amino]methyl]-4-oxo-4H-3,1-benzoxazin-2-yl]amino]-N-(phenylmethyl)benzenepropanamide] the EC50 [2] was 6 µM and the “HLE, % @ concentration” value [3, 6] was 47% @ 1.

For `Cc1c(CNC(=O)OCc2ccccc2)ccc2nc(N[C@@H](Cc3ccccc3)C(=O)N(C)CCc3ccccc3)oc(=O)c12` [Example 9dd, Phenylmethyl[[5-methyl-2-[[2-[methyl(2-phenylethyl)amino]-2-oxo-1S-(phenylmethyl)ethyl]amino]-4-oxo-3,1-benzoxazin-6-yl]methyl]carbamate], the EC50 [2] was 45 µM and the “HLE, % @ concentration” value [3, 4] was 78% @ 10.

With `COc1ccc(C[C@H](Nc2nc3ccc(NC(=O)OC(C)(C)C)c(C)c3c(=O)o2)C(=O)N(C)Cc2ccccc2)cc1` [Example 6dd, 1,1-Dimethylethyl[2-[[1S-[(4-methoxyphenyl)methyl]-2-[methyl(phenylmethyl)amino]-2-oxoethyl]amino]-5-methyl-4-oxo-4H-3,1-benzoxazin-6-yl]carbamate] the EC50 [2] was 18 µM and the “HLE, % @ concentration” value [3, 4] was 42% @ 10.

With `Cc1ccc(S(=O)(=O)NCc2cc(Br)c3nc(N[C@@H](Cc4ccccc4)C(=O)N(C)Cc4ccccc4)oc(=O)c3c2C)cc1` [Example 13d, αS-[[8-Bromo-5-methyl-6-[[[(4-methylphenyl)sulfonyl]amino]methyl]-4-oxo-4H-3,1-benzoxazin-2-yl]amino]-N-methyl-N-(phenylmethyl)benzenepropanamide] the EC50 [2] was 8 µM and the “HLE, % @ concentration” value [3, 4] was 87% @ 10.

In the case of `COC(=O)[C@H](Cc1ccccc1)Nc1nc2ccc(NC(=O)CCC(=O)O)c(C)c2c(=O)o1` [Example 11d, N-[6-[[(2-Carboxyethyl)carbonyl]amino]-5-methyl-4-oxo-4H-3,1-benzoxazin-2-yl]-L-phenylalanine, methyl ester], the EC50 [2] is reported as over 100 µM and the “HLE, % @ concentration” value [3, 5] is reported as 76% @ 100.

In the case of `Cc1c(NC(=O)OC(C)(C)C)ccc2nc(N[C@@H](Cc3ccc(OCCN4CCCC4)cc3)C(=O)N(C)Cc3ccccc3)oc(=O)c12` [Example 6ff, 1,1-Dimethylethyl[5-methyl-2-[[2-[methyl(phenylmethyl)amino]-2-oxo-1S-[[4-[2-(1-pyrrolidinyl)ethoxy]phenyl]methyl]ethyl]amino]-4-oxo-4H-3,1-benzoxazin-6-yl]carbamate], the EC50 [2] is reported as 50 µM and the “HLE, % @ concentration” value [3, 5] is reported as 75% @ 100.
